Measured values from ChEMBL document CHEMBL1139033, “Design, synthesis, and structure-activity relationship of novel thiophene derivatives for beta-amyloid plaque imaging” (Bioorg Med Chem Lett, 2006).

The molecules below were run against Amyloid-beta precursor protein (Homo sapiens, UniProt P05067) (assay: Displacement of [125I]IMPY from beta amyloid plaque in brain homogenates).
Type: tissue-based

Sequence of Amyloid-beta precursor protein (P05067 whole entry): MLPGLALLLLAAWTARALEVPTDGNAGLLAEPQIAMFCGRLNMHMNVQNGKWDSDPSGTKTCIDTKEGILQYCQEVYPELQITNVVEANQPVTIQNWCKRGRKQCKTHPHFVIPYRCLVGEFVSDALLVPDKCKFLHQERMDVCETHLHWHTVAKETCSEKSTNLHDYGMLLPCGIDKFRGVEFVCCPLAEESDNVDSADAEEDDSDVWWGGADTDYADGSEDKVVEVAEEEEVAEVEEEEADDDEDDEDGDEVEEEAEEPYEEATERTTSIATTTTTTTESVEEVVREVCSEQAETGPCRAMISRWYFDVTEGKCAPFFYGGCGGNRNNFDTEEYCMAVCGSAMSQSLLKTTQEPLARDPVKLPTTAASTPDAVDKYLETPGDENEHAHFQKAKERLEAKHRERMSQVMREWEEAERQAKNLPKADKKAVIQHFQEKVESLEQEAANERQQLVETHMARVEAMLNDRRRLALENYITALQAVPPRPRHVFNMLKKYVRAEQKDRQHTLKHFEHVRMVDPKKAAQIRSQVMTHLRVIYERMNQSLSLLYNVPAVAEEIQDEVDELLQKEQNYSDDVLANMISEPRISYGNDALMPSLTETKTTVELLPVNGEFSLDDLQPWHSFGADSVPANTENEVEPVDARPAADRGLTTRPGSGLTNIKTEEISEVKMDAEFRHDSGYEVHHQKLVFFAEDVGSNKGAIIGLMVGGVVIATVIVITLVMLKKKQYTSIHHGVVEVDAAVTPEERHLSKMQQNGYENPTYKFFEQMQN

| SMILES | Ki |
| --- | --- |
| COc1ccc(-c2ccc(-c3ccc(N(C)C)cc3)s2)cc1 | 0.5 µM |
| CSc1ccc(-c2ccc(-c3ccc(SC)cc3)s2)cc1 | > 1 µM |
| COc1ccccc1-c1ccc(-c2ccccc2OC)s1 | 0.625 µM |
| Oc1ccc(-c2ccc(-c3ccc(NCCF)cc3)s2)cc1 | 0.0039 µM |
| COc1ccc(-c2ccc(-c3ccc([N+](=O)[O-])cc3)s2)cc1 | 0.0185 µM |
| COc1ccc(-c2ccc(-c3ccc(NCCF)cc3)s2)cc1 | 0.0215 µM |
| Nc1ccc(-c2ccc(-c3ccc(N)cc3)s2)cc1 | 0.0061 µM |
| CN(C)c1ccc(-c2ccc(-c3ccc(O)cc3)s2)cc1 | 0.0075 µM |
| O=[N+]([O-])c1ccc(-c2ccc(-c3ccc([N+](=O)[O-])cc3)s2)cc1 | 0.185 µM |

Continued, values first:

| Ki | SMILES |
| --- | --- |
| 0.108 µM | COc1ccc(-c2ccc(-c3ccc(OC)cc3)s2)cc1 |
| 0.004 µM | Oc1ccc(-c2ccc(-c3ccc(O)cc3)s2)cc1 |
| 0.0056 µM | COc1ccc(-c2ccc(-c3ccc(N)cc3)s2)cc1 |
| 0.0061 µM | COc1ccc(-c2ccc(-c3ccc(O)cc3)s2)cc1 |
| 0.0096 µM | Nc1ccc(-c2ccc(-c3ccc(O)cc3)s2)cc1 |
| 0.0312 µM | CNc1ccc(-c2ccc(-c3ccc(O)cc3)s2)cc1 |
